Common to all, as to type: cell-based
The target of assay [1] is T1, human TLR7 (Homo sapiens, UniProt Q9NYK1).
T1 construct: host or cells: HEK-Blue cells
T1 sequence (Q9NYK1 27-1049): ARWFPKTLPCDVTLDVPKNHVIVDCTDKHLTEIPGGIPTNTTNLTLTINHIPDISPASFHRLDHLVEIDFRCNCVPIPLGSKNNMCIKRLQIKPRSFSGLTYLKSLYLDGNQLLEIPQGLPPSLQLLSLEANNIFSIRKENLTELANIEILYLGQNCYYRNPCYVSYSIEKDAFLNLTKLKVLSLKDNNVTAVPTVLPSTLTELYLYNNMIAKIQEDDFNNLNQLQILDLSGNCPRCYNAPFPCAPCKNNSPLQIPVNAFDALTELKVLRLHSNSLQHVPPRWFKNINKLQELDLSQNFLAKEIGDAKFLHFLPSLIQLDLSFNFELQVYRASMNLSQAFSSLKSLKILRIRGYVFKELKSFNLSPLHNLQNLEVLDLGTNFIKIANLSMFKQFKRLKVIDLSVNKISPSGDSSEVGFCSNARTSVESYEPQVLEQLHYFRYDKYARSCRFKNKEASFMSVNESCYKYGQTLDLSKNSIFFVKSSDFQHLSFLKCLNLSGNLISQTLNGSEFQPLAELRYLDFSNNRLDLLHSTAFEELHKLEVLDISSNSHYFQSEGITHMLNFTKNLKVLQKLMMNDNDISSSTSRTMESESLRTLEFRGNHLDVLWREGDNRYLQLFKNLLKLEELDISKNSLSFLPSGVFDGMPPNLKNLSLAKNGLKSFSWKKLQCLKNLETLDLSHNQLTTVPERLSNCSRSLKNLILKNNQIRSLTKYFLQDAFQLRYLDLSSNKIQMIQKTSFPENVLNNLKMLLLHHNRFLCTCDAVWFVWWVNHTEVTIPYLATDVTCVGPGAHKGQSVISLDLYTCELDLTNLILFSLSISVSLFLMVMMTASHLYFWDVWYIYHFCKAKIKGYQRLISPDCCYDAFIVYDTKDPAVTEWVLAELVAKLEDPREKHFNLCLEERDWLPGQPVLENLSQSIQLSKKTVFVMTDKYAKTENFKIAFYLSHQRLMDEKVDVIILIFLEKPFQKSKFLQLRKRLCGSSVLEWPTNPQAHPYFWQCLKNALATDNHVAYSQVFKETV
Description: TLR7 inhibition reporter assay (HEK-Blue cells, SEAP reporter, gardiquimod stimulation). The note with it: HEK-Blue cells overexpressing human TLR7, SEAP reporter, gardiquimod 7.5 μM; read-out: TLR7 IC50. The essentials: (§1)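 Compound treatment: 30 min, RT, 0.05 nM–50 μM final. Agonist: TLR7 gardiquimod 7.5 μM; TLR8 R848 15.9 μM; TLR9 ODN2006 5 nM. Incubation 22 h, 37 °C, 5% CO2. Readout SEAP, HEK-Blue Detection.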

Assay [2] concerns the target T2, human TLR8 (Homo sapiens, UniProt Q9NR97).
T2 construct: host or cells: HEK-Blue cells
T2 sequence (Q9NR97 27-1041): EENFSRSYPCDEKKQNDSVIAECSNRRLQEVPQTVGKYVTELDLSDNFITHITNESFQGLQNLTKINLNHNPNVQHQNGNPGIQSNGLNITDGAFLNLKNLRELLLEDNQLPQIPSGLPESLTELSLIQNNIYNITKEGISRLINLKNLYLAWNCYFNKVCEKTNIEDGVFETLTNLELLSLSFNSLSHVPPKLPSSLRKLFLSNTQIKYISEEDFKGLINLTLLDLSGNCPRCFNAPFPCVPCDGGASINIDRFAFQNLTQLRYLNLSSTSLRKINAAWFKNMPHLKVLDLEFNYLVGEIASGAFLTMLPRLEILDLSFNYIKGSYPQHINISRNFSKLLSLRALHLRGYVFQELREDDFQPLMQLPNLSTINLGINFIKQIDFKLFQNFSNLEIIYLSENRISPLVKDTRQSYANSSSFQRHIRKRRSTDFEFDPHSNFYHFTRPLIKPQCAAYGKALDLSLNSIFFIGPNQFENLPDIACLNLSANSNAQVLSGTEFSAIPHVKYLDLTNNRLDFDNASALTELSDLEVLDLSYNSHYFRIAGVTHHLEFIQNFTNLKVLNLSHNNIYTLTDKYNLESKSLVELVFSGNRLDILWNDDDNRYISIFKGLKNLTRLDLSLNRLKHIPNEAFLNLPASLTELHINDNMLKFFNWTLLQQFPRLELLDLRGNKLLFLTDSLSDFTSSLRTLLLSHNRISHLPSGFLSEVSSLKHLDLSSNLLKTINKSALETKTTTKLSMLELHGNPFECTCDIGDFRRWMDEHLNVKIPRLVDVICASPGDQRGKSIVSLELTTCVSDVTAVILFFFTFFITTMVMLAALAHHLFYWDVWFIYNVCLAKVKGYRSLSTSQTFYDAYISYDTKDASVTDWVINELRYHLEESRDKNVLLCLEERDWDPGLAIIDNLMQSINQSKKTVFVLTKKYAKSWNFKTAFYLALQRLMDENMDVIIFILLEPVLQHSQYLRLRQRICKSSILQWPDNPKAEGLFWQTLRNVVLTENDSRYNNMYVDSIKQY
Description: TLR8 inhibition reporter assay (HEK-Blue cells, SEAP reporter, R848 stimulation). As to conditions: HEK-Blue cells overexpressing human TLR8, SEAP reporter, R848 15.9 μM; read-out: TLR8 IC50. The essentials:
as §1
(In a reporter assay the amount or activity of a reporter protein is the signal.)

The target in assay [3] is T3, human TLR9 (Homo sapiens, UniProt Q9NR96).
T3 construct: host or cells: HEK-Blue cells
T3 sequence (Q9NR96 26-1032): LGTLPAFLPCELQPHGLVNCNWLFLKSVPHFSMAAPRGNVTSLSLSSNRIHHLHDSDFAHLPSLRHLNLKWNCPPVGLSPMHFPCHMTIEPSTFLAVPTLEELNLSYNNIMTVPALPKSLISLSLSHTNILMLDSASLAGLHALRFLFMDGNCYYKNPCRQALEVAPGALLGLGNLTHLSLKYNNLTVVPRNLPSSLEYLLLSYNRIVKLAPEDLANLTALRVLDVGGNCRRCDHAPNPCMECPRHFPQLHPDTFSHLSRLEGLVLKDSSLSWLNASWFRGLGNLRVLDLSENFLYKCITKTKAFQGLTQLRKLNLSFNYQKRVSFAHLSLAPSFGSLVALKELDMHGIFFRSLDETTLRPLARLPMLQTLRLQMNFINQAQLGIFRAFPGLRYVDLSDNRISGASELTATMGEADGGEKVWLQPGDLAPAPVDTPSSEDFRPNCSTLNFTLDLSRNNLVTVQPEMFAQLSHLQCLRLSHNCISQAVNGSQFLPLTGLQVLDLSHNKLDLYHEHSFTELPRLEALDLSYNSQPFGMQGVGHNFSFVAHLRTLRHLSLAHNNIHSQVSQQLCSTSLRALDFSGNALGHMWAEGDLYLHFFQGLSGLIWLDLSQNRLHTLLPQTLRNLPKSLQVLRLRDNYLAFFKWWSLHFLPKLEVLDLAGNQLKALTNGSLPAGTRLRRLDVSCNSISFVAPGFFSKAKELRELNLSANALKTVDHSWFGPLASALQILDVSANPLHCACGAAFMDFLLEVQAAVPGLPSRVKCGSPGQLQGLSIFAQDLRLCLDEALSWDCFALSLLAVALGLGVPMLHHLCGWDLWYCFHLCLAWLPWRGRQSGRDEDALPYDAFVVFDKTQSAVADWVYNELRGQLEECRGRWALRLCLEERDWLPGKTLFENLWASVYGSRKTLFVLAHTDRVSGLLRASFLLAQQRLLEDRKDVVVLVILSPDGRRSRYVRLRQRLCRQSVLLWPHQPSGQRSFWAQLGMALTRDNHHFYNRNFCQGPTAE
In words: TLR9 inhibition reporter assay (HEK-Blue cells, SEAP reporter, ODN2006 stimulation). As to conditions: HEK-Blue cells overexpressing human TLR9, SEAP reporter, ODN2006 5 nM. The essentials:
as §1

Molecules are shown by their SMILES. pIC50: −log10 of the molar value. Bounds are passed on as bounds.

For orientation: pIC50 means the IC50 on a negative log10 scale, so that one unit is a factor of ten. As to `CCN1CCN(c2nc3c(C(C)C)c(-c4cn5ncnc5c(C)c4C)[nH]c3s2)[C@H](C)C1` [Example 320, (R)-5-(7,8-dimethyl-[1,2,4]triazolo[1,5-a]pyridin-6-yl)-2-(4-ethyl-2-methylpiperazin-1-yl)-6-isopropyl-4H-pyrrolo[3,2-d]thiazole], the negative logarithm of the IC50 (pIC50) is 8.36 in assay [1], 8.89 in assay [2] and 4.66 in assay [3].

Regarding `COc1cc(-c2[nH]c3sc(C4CCC(N5CC(OC)C5)CC4)nc3c2C(C)C)cn2ncnc12` (single isomer, unassigned) [Example 122, 6-isopropyl-5-(8-methoxy-[1,2,4]triazolo[1,5-a]pyridin-6-yl)-2-(4-(3-methoxyazetidin-1-yl)cyclohexyl)-4H-pyrrolo[3,2-d]thiazole], the pIC50 in assay [1] was 8.71; in assay [2], 8.48; in assay [3] it was 5.03.

In the case of `COc1cc(-c2[nH]c3sc(C4CCC(N5CCC5)CC4)nc3c2C(C)C)cn2ncnc12` (single isomer, unassigned) [Example 76, 2-(4-(azetidin-1-yl)cyclohexyl)-6-isopropyl-5-(8-methoxy-[1,2,4]triazolo[1,5-a]pyridin-6-yl)-4H-pyrrolo[3,2-d]thiazole], the pIC50 was 9.05 in assay [1], 8.58 in assay [2] and 5.84 in assay [3].

As to `CCCN1CCC(c2nc3c(C(C)C)c(-c4cn5ncnc5c(C)c4C)[nH]c3s2)CC1` [Example 51, 5-(7,8-dimethyl-[1,2,4]triazolo[1,5-a]pyridin-6-yl)-6-isopropyl-2-(1-propylpiperidin-4-yl)-4H-pyrrolo[3,2-d]thiazole], the pIC50 is 8.80 in assay [1], 8.99 in assay [2] and 5.06 in assay [3].

Turning to `CNC(=O)CNC1CCC(c2nc3c(C(C)C)c(-c4cn5ncnc5c(C)c4C)[nH]c3s2)CC1` (single isomer, unassigned) [Example 209, 2-((4-(5-(7,8-dimethyl-[1,2,4]triazolo[1,5-a]pyridin-6-yl)-6-isopropyl-4H-pyrrolo[3,2-d]thiazol-2-yl)cyclohexyl)amino)-N-methylacetamide], the pIC50 in assay [1] is 9.49; in assay [2] it was 9.85; in assay [3], 5.38.

Consider `COc1cc(-c2[nH]c3sc(C4CCC(N5CCS(=O)(=O)CC5)CC4)nc3c2C(C)C)cn2ncnc12` (single isomer, unassigned) [Example 83, 4-(4-(6-isopropyl-5-(8-methoxy-[1,2,4]triazolo[1,5-a]pyridin-6-yl)-4H-pyrrolo[3,2-d]thiazol-2-yl)cyclohexyl)thiomorpholine 1,1-dioxide], for which the pIC50 was 8.20 in assay [1], 6.62 in assay [2] and below 4.30 in assay [3].

For `COc1cc(-c2[nH]c3sc(C4CCC(N5CC(O)(C(F)(F)F)C5)CC4)nc3c2C(C)C)cn2ncnc12` (single isomer, unassigned) [Example 118, 1-(4-(6-isopropyl-5-(8-methoxy-[1,2,4]triazolo[1,5-a]pyridin-6-yl)-4H-pyrrolo[3,2-d]thiazol-2-yl)cyclohexyl)-3-(trifluoromethyl)azetidin-3-ol], the pIC50 was 8.70 in assay [1], 8.90 in assay [2] and 5.48 in assay [3].

As to `COC(C)(C)CNC1CCN(c2nc3c(C(C)C)c(-c4cn5ncnc5c(C)c4C)[nH]c3s2)CC1` [Example 294, 1-(5-(7,8-dimethyl-[1,2,4]triazolo[1,5-a]pyridin-6-yl)-6-isopropyl-4H-pyrrolo[3,2-d]thiazol-2-yl)-N-(2-methoxy-2-methylpropyl)piperidin-4-amine], the figures for the pIC50 in assay [1], in assay [2] and in assay [3] were 8.10, 9.38 and 5.05, respectively.

Consider `Cc1c(-c2[nH]c3sc(C4CCC(NCC5(S(C)(=O)=O)CC5)CC4)nc3c2C(C)C)cn2ncnc2c1C` (single isomer, unassigned) [Example 214, 4-(5-(7,8-dimethyl-[1,2,4]triazolo[1,5-a]pyridin-6-yl)-6-isopropyl-4H-pyrrolo[3,2-d]thiazol-2-yl)-N-((1-(methylsulfonyl)cyclopropyl)methyl) cyclohexan-1-amine], for which the results for the pIC50 in assay [1], in assay [2] and in assay [3] were 8.86, 9.41 and 4.99, respectively.

`COc1cc(-c2[nH]c3sc(C4CCN(CCS(C)(=O)=O)CC4)nc3c2C(C)C)cn2ncnc12` [Example 16, 6-isopropyl-5-(8-methoxy-[1,2,4]triazolo[1,5-a]pyridin-6-yl)-2-(1-(2-(methylsulfonyl)ethyl)piperidin-4-yl)-4H-pyrrolo[3,2-d]thiazole]: the figures for the pIC50 in assay [1], in assay [2] and in assay [3] were 8.51, 8.56 and 4.36, respectively.

Consider `Cc1c(-c2[nH]c3sc(C4CCN(CC(=O)N(C)C)CC4)nc3c2C(C)C)cn2ncnc2c1C` [Example 57, 2-(4-(5-(7,8-dimethyl-[1,2,4]triazolo[1,5-a]pyridin-6-yl)-6-isopropyl-4H-pyrrolo[3,2-d]thiazol-2-yl)piperidin-1-yl)-N,N-dimethylacetamide], for which the pIC50 in assay [1] is 8.37; in assay [2] it was 8.87; in assay [3] it was 4.64.

The values are drawn from patent US20230139171A1 (SITA Information Networking Computing UK Limited, priority 2019, published 2023).
